Article PMC5122774, “Cloning of Glycerophosphocholine Acyltransferase (GPCAT) from Fungi and Plants” (The Journal of Biological Chemistry, 2016)

Legend:
RcGPCAT = molecular target: T1, RcGPCAT (Ricinus communis, UniProt B9RK42); test: radiometric acyltransferase assay, yeast microsomes; type: biochemical; settings: [14C]GPC 4 mM; pH 7.2 phosphate, 1% BSA, 30 °C
T1 construct: gene GPC1

[1] = substrate: C[N+](C)(C)CCOP(=O)([O-])OC[C@H](O)CO; test: as above; type: biochemical, Saccharomyces cerevisiae; settings: 18:1-CoA as acyl donor, pH 7.2 phosphate, 1% BSA, 30 °C, labelled compound

T1 sequence (B9RK42 whole entry, looked up): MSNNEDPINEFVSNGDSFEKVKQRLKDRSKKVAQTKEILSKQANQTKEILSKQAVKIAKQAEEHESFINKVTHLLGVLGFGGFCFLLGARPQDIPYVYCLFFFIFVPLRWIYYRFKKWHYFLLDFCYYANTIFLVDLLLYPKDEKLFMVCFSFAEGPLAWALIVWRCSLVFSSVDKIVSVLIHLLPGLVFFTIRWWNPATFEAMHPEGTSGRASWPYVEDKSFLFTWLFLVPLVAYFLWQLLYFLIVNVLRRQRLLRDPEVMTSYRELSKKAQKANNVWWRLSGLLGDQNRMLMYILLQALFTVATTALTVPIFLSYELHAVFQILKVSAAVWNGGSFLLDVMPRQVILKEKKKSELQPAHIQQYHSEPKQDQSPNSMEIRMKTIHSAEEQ

With CCCCCC[C@@H](O)C/C=C\CCCCCCCC(=O)SCCNC(=O)CCNC(=O)[C@H](O)C(C)(C)COP(=O)(O)OP(=O)(O)OC[C@H]1O[C@@H](n2cnc3c(N)ncnc32)[C@H](O)[C@@H]1OP(=O)(O)O [ricinoleoyl-CoA] the “radiometric acyltransferase assay, yeast microsomes” value (RcGPCAT) was “the castor GPCAT accepted all of the acyl-CoAs tested, including ricinoleoyl-CoA”.

B1: ScGPCAT (Gpc1p) (Saccharomyces cerevisiae S288C) (protein)
chain: MYKLDNNDIDDETNNSVSLTSLLEFLDPIASKVVSKYYHGSHLSKAEQKLRNFEGFRRRKPHHEHDSHHPHHLNRSRSFLQLEDFKVRALQRIRNLDKPLDSIFFKNSSRLEKAFYPFTLFNIFFIGFLMGRFPEWFHVYYTILFFVLMPIRFYTYYKTKNHYFLADFCYFVNMLCLLFIWIFPYSYSLFQSCFAFTFGTLCFAVITWRNSLVIHSIDKTTSCFIHIIPPCVMYVIYHGLPLEYKIERFPGAIIQSELDIKKNILWTSLYYLVWQSLYHYFITLKKSSKIKSGERMTSFEYLTTHQFKNFWAVKLRSPWPMIIYTLSQYFYQLFTMLLCGIWIRYKLAAALFLTIVFLWASHNGATYYIDHYGKNFEKEVDRLRLEVENLQQKLQPDSDAVISDASVNDKDYLNVNRDEDFDDSSSVSSKSD
notes: full-length, 52 kDa, eight predicted TM helices; pYES-DEST52 (GAL1 promoter) in yeast ale1Δ gpc1Δ, microsomal membranes
In the case of B1, the Km [1] is reported as 0.45 mM.
